IC50 and ED50 data for six compounds are collected here from patent US5480882A, “Benzoxazinone and benzothiazinone derivatives having cardiovascular activity” (Italfarmaco S.p.A., priority 1992, dated 1996).

Molecules are shown by their SMILES. Where a name gives a salt, the structure may show the parent alone.

Assay [1] has as its system rabbit aorta strip contracted with noradrenaline. Put plainly: Vasodilative activity in vitro, inhibition of noradrenaline-induced contraction of rabbit aorta strip. Format: cell-based. The note with it: Oryctolagus cuniculus; 50% inhibition of noradrenaline contraction of rabbit aorta strip. Here is the method: The vasodilative activity of the compounds of the present invention were determined by testing of a rabbit aorta strip contracted with noradrenaline. Using the method described by K. Murakami et al. Eur. J. Pharmacol., 141, 195, 1987., IC50 values (i.e. the micromolar (μM) concentrations of active substances causing a 50% inhibition of the contraction of the aorta strip), were determined.

Assay [2] has as its system Arg-vasopressin induced coronary spasm, anaesthetized Sprague Dawley rats. Nature of the assay: In vivo antianginal activity, Arg-vasopressin-induced coronary spasm (T-wave increase) in anaesthetized rats. The note with it: Rattus norvegicus, iv, 4 increasing doses; 50% inhibition of T-wave increase induced by i.v. Arg-vasopressin in anaesthetized rats. Here is the method: The in vivo antianginal activity was determined on anaesthetized Sprague Dawley rats of weight 350-400 g, in accordance with the method of M. Leitold et al., Arzeim. Forsch., 36, 1454 1986. The test was carried out by intravenously administering to the animals one I.U./Kg, equivalent to […] of Arg-vasopressin, thus inducing a reproducible coronary spasm that may be electrocardiographically monitored by an increase of the T-wave. The animals were treated intravenously with 4 increasing doses of the compounds of the present invention to measure their ED50 (i.e., the dose giving 50% inhibition of the T-wave increase).

Regarding `CN(C)C=Nc1ccc2c(c1)C(=O)N(CCO[N+](=O)[O-])CO2` [Example 3, 2,3-Dihydro-6-(N',N',-dimethyl-N-formimido)-3-(2'-nitro-oxyethyl)-4H-1,3-benzoxazin-4-one-HCl], the midpoint of inhibition in assay [1], the IC50, lay at 0.64 µM. In addition, it took a dose of 0.0097 mg/kg to reach the 50% effect level in assay [2] (ED50).
In assay [1], `O=C1c2cc(O)ccc2OCN1CCO[N+](=O)[O-]` [Example 5, 2,3-Dihydro-6-hydroxy-3-(2'-nitrooxyethyl)-4H-1,3-benzoxazin-4-one] came in with an IC50 of 0.096 µM.
For the compound `N#Cc1ccc2c(c1)C(=O)N(CCO[N+](=O)[O-])CO2` [Example 4, 6-Ciano-2,3-dihydro-3-(2'-nitrooxyethyl)-4H-1.3-benzoxazin-4-one], the IC50 in assay [1] was found to be 0.071 µM. Also, in assay [2], the ED50 worked out at 0.0115 mg/kg.
Turning to `CC(=O)Nc1ccc2c(c1)C(=O)N(CCO[N+](=O)[O-])CO2` [Example 2, 6-Acetamido-2,3-dihydro-3-(2'-nitrooxyethyl)-4H-1,3-benzoxazin-4-one], in assay [1], the IC50 worked out at 0.27 µM. Besides, the ED50 in assay [2] is 0.021 mg/kg.
In the case of `O=C1c2cc([N+](=O)[O-])ccc2OCN1CCO[N+](=O)[O-]` [Example 1, 2,3-Dihydro-3-(2'-nitrooxyethyl)-6-nitro,4H-1,3-benzoxazin-4-one], half-maximal inhibition in assay [1] (IC50) required 0.021 µM. The ED50 in assay [2] came to 0.0637 mg/kg.
Regarding `O=C1c2ccc(O)cc2OCN1CCO[N+](=O)[O-]` [Example 6, 2,3-Dihydro-7-hydroxy-3-(2'-nitrooxyethyl)-4H-1,3-benzoxazin-4-one], in assay [1], half-maximal inhibition (IC50) required 0.057 µM.
